Entries after “also recorded” stand apart in the source; their conditions may differ.
Key:
Assay type in all cases: in vivo
[1] = tested on: avocados
Description: Example 11. The ripening characteristics of avocados exposed to AITC vapor was analyzed. Treatment groups consisted of avocados that were: exposed to the vapor of 125 μL of AITC in a Petri dish for 30 min and 18 hours; exposed to the vapor of 500 μL of AITC for 30 minutes and 18 hours; untreated and kept 18 hours in a bin; and treated with a coating agent. Two sets of the preceding test groups were studied. One set was treated when cold along with coated fruit (i.e., fruit treated with a coating agent (95 wt % glyceryl monostearate and 5 wt % sodium stearate) and another set was treated when warm (one day out of cold storage). Daily measurements were made of respiration and firmness (using a durometer). At the start of the test, the avocados were placed in cold storage. After one day, the cold treated avocados were treated with AITC directly after removal from cold storage. The coated group was treated at this time. The warm treated avocados were allowed to warm to room temperature. On the second day, measurements were begun on the cold treated avocados and AITC treatments began on the warm treated samples. On the third day, measurements began on the warm treated groups. […]
Example 23: The ripening characteristics of avocados exposed to AITC vapor, a coating agent (95 wt % glyceryl monostearate and 5 wt % sodium stearate), and AITC plus the coating agent was analyzed. […]

[2] = tested on: Colletotrichum gloeosporioides (Cg); test: Antifungal activity of vapor against Colletotrichum gloeosporioides in avocados; conditions: Example 22, 30 minutes vapor of 62.5-500 μL on filter paper disc, assessed on day 5
[3] = tested on: Botrytis cinerea (Bc); test: Antifungal activity of AITC vapor against Botrytis cinerea in strawberries; conditions: Example 17; suspended strawberries; coating agent 50 g/L dip; AITC 125 μL 30 minutes; by day 5
[4] = tested on: mandarins; test: Visible appearance of vapor-treated mandarins; conditions: 72 hours vapor of 3 mL in a Petri dish
Description: Example 1. The antifungal activity of diallyl disulfide (DADS) vapor against Penicillium digitatum (Pd) was tested in mandarins. All samples were wounded by puncturing with a screw and infected by dispensing 1000 Pd spores suspended in 10 μL of water into each wound. The test groups consisted of mandarins that were: untreated; dipped in a solution of 1 g/L of imazalil; and exposed for 72 hours to the vapor of 3 mL of DADS in a Petri dish.
Example 2. The antifungal activity of allyl isothiocyanate (AITC) and DADS vapor was tested against Pd and Penicillium italicum (Pi) in mandarins. All samples were wounded by puncturing with a screw. Mandarins were infected by dispensing either 1000 Pd spores or 1000 Pi spores suspended in 10 μL into the wound. The test groups consisted of mandarins that were: uninfected and untreated; uninfected and treated by dipping in a solution of 1 g/L of imazalil; infected with Pd and untreated; infected with Pd and exposed to AITC; infected with Pd and exposed to DADS; infected with Pi and untreated; infected with Pi and exposed to AITC; and infected with Pi and exposed to DADS. Exposure to AITC or DADS consisted of exposing the mandarins for 72 hours to the vapor of 3 mL of the respective compound dispensed in a Petri dish. […]
Example 5. […] The test groups were then left at ambient temperature, high humidity, and assessed for Pd mold after 6 days. […]

| SMILES | quality and defects of treated avocados ([1]; Example 23, avocados, vapor of 500 μL, 11 days of incubation) | effect on avocado peel and firmness ([1]; in vivo) | incidence of Cg mold [2] | reduction in incidence of mold versus the untreated test group [3] | visible appearance of treated fruit [4] |
| --- | --- | --- | --- | --- | --- |
| C=CCN=C=S [AITC, allyl isothiocyanate] | higher quality and had fewer defects than the untreated avocados and the avocados treated with the coating agent alone | darkening and thickening of the avocado peel and a prolonged feeling a firmness | reduced the incidence of Cg mold compared to the untreated samples, the samples treated with coating agent, and the prochloraz treated sample | over 80% | – |
| C=CCSSCC=C [DADS, diallyl disulfide] | – | – | – | – | no visible degradation or discoloration; also recorded: No difference in appearance |
